# Source: US20200009135A1, “THERAPEUTIC APPLICATIONS OF MALT1 INHIBITORS” (MEDIVIR AB, priority 2017, published 2020)
# Key:
# [1] = system: CMV-specific (NLV+) CD8+ Teff cells expressing IFNγ; assay: Human whole blood loop assay with CMV lysate; type: cell-based; settings: 4 μM, 6 hours, alone and in combination with CMV lysate 1 μg/ml
# Method: Each blood loop contained 2 mL of freshly taken human whole blood from HLA-A2+ and CMV+ donors.
# Freshly drawn whole blood from healthy volunteers (2 mL) in a tube was incubated under rotation at 37° C. for 6 hours. […] After 2 hours Brefeldin-A was added to allow intra-cellular analysis of cytokines (IFNγ and TNFα). Antigen-specific CD8+ T-cells were identified by fluorescence-conjugated tetrameric complexes of HLA-A2 molecules loaded with the NLV peptide epitope ([…]) of CMV pp65,
# [2] = system: panel of human cancer cell lines; assay: Human cancer cell line panel (Oncolead), GI50, 72 hours; type: cell-based
# [3] = system: IL-2 expression in Jurkat (E6-1) cells; assay: IL-2 expression assay (down-stream MALT1 activity, Jurkat E6-1); type: cell-based; settings: Homo sapiens; Jurkat E6-1, PMA/Ionomycin stimulation, 24 hours
# Method: Down-stream MALT1 activity was measured by PMA/lonomycin-induced expression of IL-2 in Jurkat (E6-1) cells. Compounds were distributed in a 96 well plate, 8-point concentration series, 1:3 dilution. Jurkat clone E6-1, 4×10^4 cells/well, were added, and stimulated by PMA/lonomycin (1:500 dilution) for 24 hours at 37° C. Measurement was performed using a MesoScale Sector S600 with the Human IL-2 Tissue Culture kit according to the manufacturers recommendation.
# [4] = system: CMV-specific (NLV+) CD8+ Teff cells expressing IFNγ or TNFα; assay: Human whole blood stimulated with (MTTE)3-CMV vaccine; type: cell-based; settings: 4 μM with 120 nM (MTTE)3-CMV vaccine, 6 hours, three donors
# Method: Freshly drawn whole blood from healthy volunteers (2 mL) in a tube was incubated under rotation at 37° C. for 6 hours. […]. After 2 hours Brefeldin-A was added to allow intra-cellular analysis of cytokines (IFNγ and TNFα) by flow-cytometry. Antigen-specific CD8+ T-cells were identified by fluorescence-conjugated tetrameric complexes of HLA-A2 molecules loaded with the NLV peptide epitope ([…]) of CMV pp65.
# [5] = system: MB49 mouse bladder cancer; assay: MB49 mouse bladder cancer model, Treg and Teff cells by flow cytometry; type: in vivo; settings: C57BL/6 mice
# Method: Evaluation of Treg and Teff cell numbers was performed by flow cytometry. From a tumour sample (resected piece or biopsy), tumour cells and TILs are dispersed into single cell suspension. Cells are then washed with PBS and stained by antibodies. Samples were stained with antibodies to identify T-cell subpopulations; CD3-BV421 (Biolegend 100228), CD8-FITC (Biolegend 100706), CD4-PE (Biolegend 116005), CD25-PerCP Cy5.5 (Biolegend 101912, clone 3C7), for 15 minutes at room temperature, followed by addition of erythrocyte lysis buffer (cat no. 349202, BD BioSciences, Franklin Lakes, N.J., USA) for 8 minutes. Cells were permeabilized with FoxP3 fix/Perm (cat no. 421401, Biolegend San Diego, Calif., USA), washed with FoxP3 Perm buffer (Cat no. 421402, Biolegend) and stained with an Alexa Fluor® 647 labelled FoxP3 antibody (Cat no. 320013, Biolegend) according to the manufacturer's instructions. The cells were washed twice in PBS with 1% BSA and analyzed on a FACSCanto II (BD Biosciences). Data analysis was performed using FlowJo software (TreeStar, Ashland, Oreg., USA). For intracellular staining of cytokines, inclusion of transport inhibitors e.g. Monensin or Brefeldin A.
# The murine bladder urothelial carcinoma cell line Mouse Bladder (MB)-49 is a C57BL/6-derived cell line cultured at 37 C and 5% CO2 in DMEM+GlutaMax supplemented with 10% FBS, 0.1 mM sodium pyruvate, 100 U/ml Penicillin-Streptomycin. For determining the effects of MALT1 inhibitor on the presence of T-effector and T-regulatory cells in vivo, 3×10^5 MB49 cells were injected s.c. on the right flank of female C57BL/6 mice. […] As reference 200 μg of anti-CD25 antibody (clone PC61) in 100 μL PBS was administered i.v. on day 8 and 11. The levels of Treg and Teff cells were analyzed by flow cytometry in the tumour (T) and in tumour-draining lymph nodes (TDLN) on day 12.
# [6] = p.o. once daily day 8-11, two doses, analysed day 12
smiles,measurement,setting,value
"CO[C@@H](C)c1c(NC(=O)Nc2cnc(-n3nccn3)c(Cl)c2)cnc2cc(Cl)nn12 [Example 2, (S)-1-(5-chloro-6-(2H-1,2,3-triazol-2-yl)pyridin-3-yl)-3-(2-chloro-7-(1-methoxyethyl)pyrazolo[1,5-a]pyrimidin-6-yl)urea]",activated antigen-specific IFNγ+CD8+ T cells,[1],increase
same,antiproliferative effect on the majority of cell lines tested,"[2]; 81 solid and 12 hematological cancer cell lines, 50 μM to 0.05 nM",essentially no antiproliferative effect
same,GI50,"[2]; Homo sapiens, WSU-NHL cell line, not confirmed in follow-up assay",< 1000 nM
same,IC50,[3],0.01 µM
same,percentage of activated antigen-specific IFNγ+ and TNFα+ CD8+ T cells,[4],increase
same,amount of CD8/CD25 double positive cells (Teff) in TDLN,"[5]; p.o. once daily day 8-11, analysed day 12",not reduced
same,percentage of FOXP3 positive cells (Treg) out of CD3/CD4 double positive cells in tumour,[5]; [6],"reduced, in a dose-dependent manner"
same,percentage of FOXP3 positive cells (Treg) out of CD3/CD4 double positive cells in tumour-draining lymph nodes,[5]; [6],"reduced, in a dose-dependent manner"
